Source: the supplement of paper PMC10307832

Assays:
Assay in all cases: relative viability (nuclei count vs DMSO), 5 days (fraction); higher = more cells survive
[1] = compound: COc1cc2c(Oc3ccc4[nH]c(C)cc4c3F)ncnc2cc1OCCCN1CCCC1 [Cediranib] + C[C@@H](Oc1cc(-c2cnn(C3CCNCC3)c2)cnc1N)c1c(Cl)ccc(F)c1Cl [Crizotinib] (partner 1 µM)
Outline: (§1)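 Lung cancer cell lines in 1536-well plates got either a single drug or a fixed anchor-drug dose together with five library-drug doses (not always all listed) in √10 steps, by pin tool, on the day after seeding. Nuclei were counted after 5 days, and relative viability is the treated-to-vehicle ratio of nuclei counts. Values are medians of duplicate plates.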

[2] = compound: O=C(C[C@H]1NCCC[C@@H]1O)Cn1cnc2cc(Br)c(Cl)cc2c1=O (racemic) [Halofuginone] + O=C(c1cc(Cc2n[nH]c(=O)c3ccccc23)ccc1F)N1CCN(C(=O)C2CC2)CC1 [Olaparib] (partner 8 µM)
Outline: as §1

[3] = compound: O=C(C[C@H]1NCCC[C@@H]1O)Cn1cnc2cc(Br)c(Cl)cc2c1=O (racemic) [Halofuginone] + C[C@]1(O)C[C@@H](c2nc(-c3ccc4ccc(-c5ccccc5)nc4c3)c3c(N)nccn32)C1 [Linsitinib] (partner 1 µM)
Outline: as §1

[4] = compound: COc1cc2c(Oc3ccc4[nH]c(C)cc4c3F)ncnc2cc1OCCCN1CCCC1 [Cediranib] + CS(=O)(=O)N1CCN(Cc2cc3nc(-c4cccc5[nH]ncc45)nc(N4CCOCC4)c3s2)CC1 [Pictilisib] (partner 1 µM)
Outline: as §1

Row | Cell Line | relative viability ([1]; first compound 0.04 µM) | relative viability ([1]; first compound 0.1265 µM) | relative viability ([1]; first compound 0.4 µM) | relative viability ([1]; first compound 1.265 µM) | relative viability ([1]; first compound 4 µM) | relative viability ([2]; first compound 0.001 µM) | relative viability ([2]; first compound 0.003162 µM) | relative viability ([2]; first compound 0.01 µM) | relative viability ([2]; first compound 0.03162 µM) | relative viability ([2]; first compound 0.1 µM) | relative viability ([3]; first compound 0.001 µM) | relative viability ([3]; first compound 0.003162 µM) | relative viability ([3]; first compound 0.01 µM) | relative viability ([3]; first compound 0.03162 µM) | relative viability ([3]; first compound 0.1 µM) | relative viability ([4]; first compound 0.04 µM) | relative viability ([4]; first compound 0.1265 µM) | relative viability ([4]; first compound 0.4 µM) | relative viability ([4]; first compound 1.265 µM) | relative viability ([4]; first compound 4 µM)
1 | H3255 | 0.945 | 0.699 | 0.825 | 0.925 | 0.861 | 0.622 | 0.563 | 0.522 | 0.514 | 0.544 | 0.913 | 0.952 | 0.876 | 0.941 | 0.805 | 0.533 | 0.525 | 0.409 | 0.494 | 0.446
2 | NCI-H1734 | 0.604 | 0.612 | 0.551 | 0.691 | 0.695 | 0.632 | 0.621 | 0.6 | 0.584 | 0.22 | 0.904 | 0.947 | 0.888 | 0.938 | 0.416 | 0.457 | 0.541 | 0.54 | 0.365 | 0.47
3 | NCI-H650 | 0.7 | 0.757 | 0.612 | 0.835 | 0.639 | 0.395 | 0.389 | 0.408 | 0.36 | 0.286 | 1.03 | 0.924 | 0.877 | 0.811 | 0.457 | 0.848 | 0.956 | 0.836 | 0.915 | 1.04
4 | NCI-H1915 | 1.01 | 0.851 | 0.883 | 0.873 | 0.832 | 0.225 | 0.247 | 0.241 | 0.26 | 0.237 | 1.05 | 1.1 | 1 | 1.06 | 0.974 | 0.874 | 0.722 | 0.87 | 0.837 | 1.04
5 | Calu-6 | 0.844 | 0.849 | 0.81 | 0.786 | 0.602 | 0.611 |  | 0.584 | 0.327 | 0.135 | 1 |  | 0.932 | 0.712 | 0.35 | 0.97 | 0.985 | 0.931 | 0.824 | 1.13
6 | NCI-H2009 | 1.12 | 1.03 | 0.989 | 1.06 | 1.04 | 0.744 | 0.664 | 0.66 | 0.706 | 0.541 | 1.27 | 1.12 | 1.19 | 0.872 | 0.81 | 0.769 | 0.325 | 0.644 | 0.639 | 0.822
7 | NCI-H1651 | 0.887 | 0.904 | 0.876 | 0.89 | 0.976 | 0.177 | 0.194 | 0.2 | 0.178 | 0.176 | 1.07 | 0.978 | 0.994 | 0.6 | 0.332 | 0.666 | 0.77 | 0.533 | 0.458 | 0.445
8 | HOP-62 | 0.802 |  | 0.886 | 0.858 | 1.1 | 0.493 | 0.473 | 0.415 | 0.296 | 0.129 | 1.1 | 1.07 | 1.09 | 0.95 | 0.302 | 0.813 |  | 0.578 | 0.413 | 1.16
9 | CAL-12T | 0.855 | 0.639 | 0.661 | 0.638 | 0.62 | 0.785 | 0.717 | 0.709 | 0.754 | 0.548 | 0.842 | 0.838 | 0.659 | 0.866 | 0.649 | 0.431 |  | 0.438 | 0.319 | 0.501
10 | LCLC-103H | 0.995 | 1.09 | 1.02 | 1.07 | 1.07 | 0.794 | 0.779 | 0.778 | 0.747 | 0.737 | 1.12 | 1.48 | 1.04 | 1.09 | 1.01 | 0.63 | 0.754 | 0.619 | 0.654 | 0.56
11 | NCI-H3122 | 0.259 | 0.297 | 0.277 | 0.256 | 0.275 | 0.654 | 0.618 | 0.642 | 0.692 | 0.686 | 1.01 | 1.04 | 0.993 | 0.952 | 0.968 | 0.669 | 0.674 | 0.585 | 0.55 | 0.588
12 | PC-14 | 0.895 | 0.909 | 0.82 | 0.918 | 0.855 | 0.383 | 0.333 | 0.406 | 0.218 | 0.0499 | 1.09 | 0.97 | 0.884 | 0.774 | 0.332 | 0.826 | 0.918 | 0.487 | 0.438 | 0.652
13 | BEN | 1.19 | 0.662 | 0.971 | 0.824 | 0.816 | 1.06 | 1 | 1.12 | 1.02 | 0.626 | 0.965 | 0.912 | 1.03 | 0.841 | 0.352 | 0.584 | 0.497 | 0.509 | 0.425 | 0.504
14 | EPLC-272H | 0.735 |  | 0.945 | 1.04 | 0.906 | 1.09 | 0.775 | 0.583 | 0.764 | 0.445 | 1.28 | 1.17 | 1.06 | 1.2 | 1.13 | 0.322 |  | 0.346 | 0.305 | 0.248
15 | LK-2 | 0.19 | 0.222 | 0.247 | 0.25 | 0.257 | 0.806 | 0.623 | 0.673 | 0.833 | 0.607 | 0.722 | 0.656 | 0.433 | 0.609 | 0.452 | 0.607 | 0.524 | 0.573 | 0.591 | 0.319
16 | NCI-H1299 | 0.982 | 0.945 | 0.957 | 0.92 | 0.929 | 1 | 1.05 | 0.929 | 0.851 | 0.418 | 1.01 | 1.23 | 0.972 | 0.955 | 0.732 | 0.866 | 0.844 | 0.719 | 0.853 | 0.748
